Source: patent publication US8748108B2, “Biomarkers for identifying patient classes” (AbbVie Inc., priority 2006, dated 2014)
Entries after “also recorded” stand apart in the source; their conditions may differ.

Key:
[1] = tested on: relapsed or refractory SCLC; test: phase 2 study, efficacy (RECIST, PFS, OS); format: in vivo, human
Source text: Eligible candidates for the phase 2 portion of this study (NCT00445198) were adults with histologically or cytologically confirmed SCLC, extensive stage, with progressive disease after at least one prior chemotherapy regimen (any number of prior therapies were allowed). […] Patients were excluded if they had underlying or predisposing condition of bleeding (history of non-chemotherapy induced thrombocytopenia with bleeding within 1 year, active peptic ulcer or hemorrhagic esophagitis/gastritis, active immune thrombocytopenic purpura, etc.). This study was conducted according to the Declaration of Helsinki and with approval from Institutional Review Boards of all participating study sites. All participants provided written informed consent before participating. The phase 2 component of this clinical trial was an open-label, single arm study of patients with recurrent and progressive SCLC after at least one prior therapy. Based on the dose and schedule determined in phase 1 (Example 3), patients were treated with navitoclax 150 mg daily for 1 week, and 325 mg daily thereafter. Cycle duration was defined as 21 days. Subjects could remain on therapy indefinitely, until disease progression or intolerable toxicity. […] New guidelines to evaluate the response to treatment in solid tumors. European Organization for Research and Treatment of Cancer, National Cancer Institute of the United States, National Cancer Institute of Canada. […] Additional efficacy variables included PFS and OS. All subjects enrolled were included in the analyses. Descriptive statistics were used to summarize demographic variables. Progression free survival and overall survival were computed using Kaplan-Meier methodology and 95% confidence intervals were provided. Progression free survival (PFS) was defined as the number of days from the date the subject started the study drug to the date the subject experienced an event of disease progression, or if progression was not experienced, then the date of death if the death occurred within 42 days (length of time between tumor assessments). Overall survival (OS) was defined as the number of days from the date the subject started the study drug to the date of the subject's death. […] Correlations between median BCL2 copy number and pro-GRP were performed by the Pearson correlation; M30 and CTC change from baseline comparisons among Pro-GRP groups were performed by one-way ANOVA using the JMP 8.0 statistical software. Optimized thresholds for the tumor markers were obtained using BATTing (Bootstrapping and Aggregating Thresholds from Trees) method (See, […]., Bagging Predictors. Machine Learning 26:123-140, 1996, fully incorporated herein by reference). Briefly, BATTing uses a tree-based model for threshold estimation. However, a single tree may be unstable and not robust enough against small perturbations in the distribution of the data. In addition, single tree-based models are known be prone to overfitting (that is, it is over-specified for training data) and have poor prediction power. Those issues are addressed in BATTing by aggregating the thresholds from multiple trees to get a more robust estimate. Each tree is built using a bootstrap random sample drawn from the original population and provides its own cutoff. The final estimate of the threshold is calculated as the median from the distribution of cutoffs generated from the multiple trees. This procedure was implemented using the R statistical software (available online from the R project). Several exploratory correlative biomarkers were included in this study, including both CTC enumeration and plasma protein markers associated with small cell lung cancer. The biomarker analysis included all phase II patients and, to increase the sample size, patients with SCLC and those dosed with >325 mg navitoclax on the phase I portion of this study were also included in the analysis. […]

[2] = tested on: relapsed or refractory SCLC and other solid tumors; test: phase I dose-escalation study, tumor response (RECIST); format: in vivo, human
Source text: (§1) This example illustrates a phase I dose-escalation study to evaluate the safety, pharmacokinetics, and preliminary efficacy of navitoclax in subjects with relapsed or refractory SCLC and other solid tumors. This phase I study of navitoclax, a novel inhibitor of Bcl-2 family proteins, was designed to evaluate safety, pharmacokinetics, and preliminary efficacy in subjects with small cell lung cancer (SCLC) or other solid tumors.
(§2) Subjects enrolled to intermittent dosing cohorts received navitoclax on Days 1-14 followed by 7 days off. Subjects on continuous dosing cohorts received a one week lead-in dose of 150 mg followed by continuous daily administration of navitoclax. Blood samples were collected for pharmacokinetic analyses, biomarker analyses, and platelet monitoring.
Subjects included histologically documented SCLC or other non-hematologic malignancies, age ≧18, Eastern Cooperative Oncology Group performance status (ECOG PS) of ≦2, measurable disease by Response Evaluation Criteria in Solid Tumors (RECIST 1.0), and had received at least one prior chemotherapy treatment with documented progression. Subjects with brain metastases were included if they had surgery and/or radiation therapy followed by 21 days of stable neurologic function and stable disease by imaging prior to the first dose of study drug. Additional inclusion criteria included adequate bone marrow, renal and hepatic function per local laboratory reference range, non-pregnant status, and a life expectancy of ≧90 days.
(§3) Subjects were evaluated with history, physical exam, vital signs, complete blood count, chemistries, urinalysis and ECOG PS weekly through C2 and on D1 of each subsequent cycle. ECG and 2D-ECHO were obtained on C1D-3, C1D14, C3D1, C3D14, and end of study. Platelet counts were obtained on D-3 through 14 of C1, and weekly through each subsequent cycle. Lymphocyte enumeration was performed at screening, C1D14, at the end of C4, and at the end of every 3rd cycle thereafter. Radiographic tumor assessments were performed at baseline, after the 2nd and 4th cycles and after every 3 cycles thereafter.

[3] = phase 2 study, safety / study discontinuation; format: in vivo, human; conditions: phase 2, 39 patients
Procedure: Safety assessments included history and physical examinations, vital signs, ECOG performance status, AEs, blood chemistry and complete blood counts with differential. Safety assessments were performed at screening, weekly during cycle 1, and at the start of subsequent cycles. Adverse event severity was graded according to the National Cancer Institute Common Terminology Criteria for Adverse Events (NCI CTCAE), version 3.0 (Common Terminology Criteria for Adverse Events. Version 3.0. Available at NCI website for the cancer therapy evaluation program (CTEP). Relationships of adverse events to navitoclax (definitely, probably, possibly, unlikely, or unrelated) were assessed by the Principal Investigator at each site.
A total of 39 patients participated in the phase 2 study. The majority of patients were of performance status 1. The median number of prior therapeutic regimens was 2 (range 1-6). All patients were started at the planned dose and schedule, including dose escalation to 325 mg in week 2. The primary reasons for study discontinuation included disease progression (N=26, 67%) and AEs (N=11, 28%). The median number of treatment cycles was 2 (range, 1-11) and the median treatment duration was 1.3 months (range, 0.2-7.3).

[4] = tested on: circulating tumor cells (CTC); test: phase 2 study, circulating tumor cell number (CellSearch); format: in vivo, human
Procedure: Blood specimens for analyzing circulating tumor cells (CTC) were collected at screening, on day 14 of cycles 1 and 2, and at final study visit (for US patients only). […] Samples enriched for CTC are removed from the Veridex cartridge after the imaging and enumeration, washed 1× in PBS, pelleted then resuspended in 100 μL PBS and dropped onto a positively charged slide (Biogenex, San Ramon, Calif.) and dried. The slides are then rinsed in H2O prior to imaging using the Carl Zeiss (Germany) or Bioview imaging systems (Tel Aviv, Israel), the CTC are identified and the locations recorded. […] The slides are then returned to the Zeiss or Bioview imaging systems and the previously identified CTC are assessed for DNA copy number.
To further evaluate this association, we assessed plasma Pro-GRP, and BCL2 copy number by FISH in CTC from patients on this study (n=10).

[5] = tested on: M30; test: phase I study, serum M30 (caspase-cleaved CK18); format: in vivo, human
Procedure: (§4) Blood samples for circulating tumor cells (CTCs) were collected at screening, C1D14, C2D14, and at the end of study treatment. Samples for the plasma marker Pro-GRP were collected at screening, C1D14, C2D14, and at the end of study. Samples for serum marker M30 were collected at screening, pre-dose, 6 and 24 hours post-dose on C1D-3 (for 14/21 day dosing) or lead-in day 2 for 21/21 day dosing). Samples were also collected on C1D14; pre-dose and 6 hours post-dose on C2D1; C2D14; end of cycle 4; and every 3rd cycle thereafter and at the final visit for all subjects.
(§5) The CTC were analyzed via the CellSearch system (Veridex, Raritan, N.J.). […] Pro-GRP was measured using ARCHITECT ELISA kits (Abbott Diagnostics, Abbott Park, Ill.). Serum samples were analyzed for M30 and M65 (Peviva) using previously described assays validated to good clinical laboratory practice (Cummings J, Ward T H, LaCasse E, et al: Validation of pharmacodynamic assays to evaluate the clinical efficacy of an antisense compound (AEG 35156) targeted to the X-linked inhibitor of apoptosis protein XIAP. Br J Cancer 92:532-8, 2005; and Cummings J, Ranson M, Lacasse E, et al: Method validation and preliminary qualification of pharmacodynamic biomarkers employed to evaluate the clinical efficacy of an antisense compound (AEG35156) targeted to the X-linked inhibitor of apoptosis protein XIAP. […]

[6] = tested on: M30; test: phase 2 study, M30 ELISA assay in patient serum; format: in vivo, human
Procedure: Serum and plasma samples collected at the same intervals were stored at −70° C. or colder until analyzed for quantitative assessment of tumor markers. CYFRA 21-1 and Pro-GRP were measured using the automated [sequence] ELISA kits (Abbott Diagnostics, Abbott Park, Ill.) and NSE was measured in plasma using automated electrochemoluminescent assays on Elecsys 2010 (Roche Diagnostics, Germany). Serum samples were analyzed for M30 and M65 (Peviva AB, Sweden) using previously described assays validated to good clinical laboratory practice (see, Cummings J., et al., Br J Cancer 92:532-8, 2005; and Cummings J., et al., Br J Cancer 95:42-8, 2006).
This assay measures the release of caspase-cleaved cytokeratin 18 following apoptotic cell death.

[7] = tested on: pro-GRP; test: phase I study, plasma pro-GRP (ARCHITECT ELISA); format: in vivo, human; conditions: with increasing dose
Procedure: as §4, §5

[8] = phase I dose-escalation study, safety; format: in vivo, human
Source text: as §1, §2
as §3, with “cycles thereafter. […]” for “cycles thereafter.”

[9] = phase I study, pharmacokinetics; format: in vivo; conditions: human, plasma; phase 1, patients, oral
[10] = tested on: recurrent SCLC; conditions: recurrent SCLC patients; cited from earlier work
[11] = baseline CYFRA 21.1 above 2.3 ng/ml
[12] = baseline CYFRA 21.1 below 2.3 ng/ml
[13] = 47 enrolled, 38 evaluable for response

CC1(C)CCC(c2ccc(Cl)cc2)=C(CN2CCN(c3ccc(C(=O)NS(=O)(=O)c4ccc(NC(CCN5CCOCC5)CSc5ccccc5)c(S(=O)(=O)C(F)(F)F)c4)cc3)CC2)C1 (stereo in doubt) [navitoclax, N-(4-(4-(2-(4-chlorophenyl)-5,5-dimethyl-1-cyclohex-1-en-1-yl)methyl)pip-erazin-1-yl)benzoyl)-4-(((1R)-3-(morpholin-4-yl)-1-((phenylsulfanyl)methyl)propyl)amino)-3-((trifluoromethyl)sulfonyl)benzenesulfonamide]
Median OS Above threshold ([1]; baseline CTC above 12/7.5 ml): 67 (17) D
Median PFS Above threshold ([1]; baseline CTC above 12/7.5 ml): 46 (15) D
Median PFS Below threshold ([1]; baseline CTC below 12/7.5 ml): 63 (14) D
Median OS Above threshold [1, 11]: 67 (19) D
Median PFS Above threshold [1, 11]: 44 (19) D
Median OS Below threshold [1, 12]: 242 (20) D
Median PFS Below threshold [1, 12]: 53 (20) D
Median OS Above threshold ([1]; baseline NSE above 15 ng/ml): 72 (24) D
Median PFS Above threshold ([1]; baseline NSE above 15 ng/ml): 44 (24) D
Median OS Below threshold ([1]; baseline NSE below 15 ng/ml): 242 (15) D
Median PFS Below threshold ([1]; baseline NSE below 15 ng/ml): 55 (15) D
median OS ([1]; patients above thresholds for both NSE and CYFRA (poor prognosis), n=15): 61 days
median PFS ([1]; patients above thresholds for both NSE and CYFRA (poor prognosis), n=16): 41 days
median OS ([1]; patients not above both NSE and CYFRA thresholds, n=18): 242 days
median PFS ([1]; patients not above both NSE and CYFRA thresholds, n=23): 55 days
Median progression-free survival (PFS) ([1]; phase 2, 39 patients): 1.5 months
best response of disease progression (PD) ([1]; phase 2, 39 patients): 41%
confirmed partial response (PR) ([1]; phase 2, 39 patients): 2.6%
inevaluable for response ([1]; phase 2, 39 patients): 33.3%
median overall survival (OS) ([1]; phase 2, 39 patients): 3.2 months
stable disease (SD) as best response ([1]; phase 2, 39 patients): 23.1%
Best response PD, N (%) ([1]; phase 2, N = 39): 16 (41.0) N (%)
Best response PR, N (%) ([1]; phase 2, N = 39): 1 (2.6) N (%)
Best response SD, N (%) ([1]; phase 2, N = 39): 9 (23.1) N (%)
Median OS, mo (95% CI) ([1]; phase 2, N = 39): 3.2 (2.3, 8.1) mo
ORR, % (95% CI) ([1]; phase 2, N = 39): 2.6 (0.1, 13.5) %
Median PFS, mo (95% CI) ([1]; phase 2, N = 39, 150 mg daily 1 week then 325 mg daily): 1.5 (1.4, 1.7) mo
Best response inevaluable, N (%) ([1]; phase 2, N = 39, baseline tumor data only): 13 (33.3) N (%)
subjects with partial response [2, 13]: One
subjects with stable disease [2, 13]: 7
duration of partial response ([2]; one subject, remains on study): over 26 months
study discontinuation due to AEs [3]: 28%
median CTC number ([4]; better prognosis patients, high pro-GRP group, baseline to day 14): 91 % of baseline
median CTC number ([4]; better prognosis patients, low pro-GRP group, baseline to day 14): 349 % of baseline
median CTC number ([4]; total population, high pro-GRP group n=12): 186 % of baseline
median CTC number ([4]; total population, low pro-GRP group n=8): 518 % of baseline
time of rise in M30 following the first dose ([5]; in most instances): ≤ 6 h
circulating M30 ([5]; serum, cycle 1, post first exposure): dose-dependent transient increase in circulating M30
M30 concentrations ([6]; better prognosis patients, high Pro-GRP group (above 600 pg/mL)): 205%
M30 concentrations ([6]; better prognosis patients, low Pro-GRP group (below 600 pg/mL)): 116%
M30 concentrations ([6]; total population, high Pro-GRP group n=19): 212%
M30 concentrations ([6]; total population, low Pro-GRP n=13): 109%
Pro-GRP levels overall [7]: declined or stabilized with increasing navitoclax dose
recommended phase 2 dose ([8]; from exploration of doses and schedules in phase I): 325 mg daily
toxicities / tolerability ([8]; phase I, intermittent and continuous dosing cohorts): dose and schedule-dependent thrombocytopenia, diarrhea, nausea, and fatigue; also recorded: safe, well-tolerated, with dose-dependent thrombocytopenia as the major side effect; also recorded: rapid and dose-dependent thrombocytopenia
half-life [9]: ~15 h

CC[C@@]1(O)C(=O)OCc2c1cc1n(c2=O)Cc2cc3c(CN(C)C)c(O)ccc3nc2-1 [topotecan]
response rate [10]: 2-6%
